Experimental data reported in patent US20160045505A1, “COMPOUNDS AND COMPOSITIONS FOR THE TREATMENT OF PARASITIC DISEASES” (NOVARTIS AG, priority 2013, published 2016).
Like-named read-outs stand apart in the source and are kept apart here.

Columns and labels:
[1] = system: Leishmania donovani axenic amastigote parasites; experiment: Leishmania donovani axenic amastigote proliferation assay (Cell TiterGlo luminescence, 2 day incubation); type: cell-based; settings: Leishmania donovani, read-out: L. donovani amastigotes EC50
[2] = system: Trypanosoma brucei Lister 427 strain, bloodstream form; experiment: Assay for proliferation of kinetoplastid parasite Trypanosoma brucei (Cell Titer Glo, 48 hours); type: cell-based; settings: Trypanosoma brucei, T. brucei Lister 427 bloodstream form, read-out: T. brucei EC50
How it was run: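 Bloodstream-form T. brucei Lister 427 in HMI-9 medium was exposed to compound (DMSO vehicle) for 48 hours at 37° C, 5% CO2. Parasite growth was read as ATP by CellTiter-Glo luminescence, with EC50 calculated from percent inhibition.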

[3] = system: Trypanosoma cruzi amastigotes (Tulahuen strain expressing Lac-Z) cultured in 3T3 fibroblast cells; experiment: microbe, parasite or virus in culture; type: cell-based; settings: Trypanosoma cruzi, TULAHUEN, Fibroblast, T. cruzi amastigotes in 3T3 fibroblast cells, read-out: T cruzi EC50
[4] = system: L. donovani HU3 strain in mouse peritoneal macrophages; experiment: Assay for proliferation of Leishmania parasites in infected mouse peritoneal macrophages (SybrGreen staining, high-content imaging, 5 days); type: cell-based, Leishmania donovani; settings: Leishmania donovani, Peritoneal macrophage, L. donovani in mouse peritoneal macrophages, read-out: L. donovani Macrophage EC50
[5] = axenic amastigotes, inhibition of proliferation

SMILES	EC50 [1, 5] [µM]	EC50 ([2]; inhibition of proliferation) [µM]	EC50 ([3]; inhibition of proliferation) [µM]	EC50 ([4]; inhibition of proliferation) [µM]	EC50 ([1]; L. donovani axenic amastigotes) [µM]	EC50 [2] [µM]	EC50 [3] [µM]	EC50 [4] [µM]
CN(C)C(=O)Nc1ccc(F)c(-c2cn3cc(C4=CCOCC4)cnc3n2)c1 [Compound 324]	0.288	0.047	0.253	1.57	–	–	–	–
O=C(Nc1cnc2nc(-c3cc(NC(=O)N4CCCC4)ccc3F)cn2c1)c1ccc(F)cn1 [Compound 124]	0.049	0.023	0.046	5.64	–	–	–	–
COCN(C(=O)OC(C)C)c1cnc2nc(-c3cc(NC(=O)c4oc(C)nc4C)ccc3F)cn2c1 [Compound 554]	–	–	–	–	0.814	0.664	1.51	1.85
O=C(Nc1cnc2nc(-c3cc(NC(=O)N4CCCC4)ccc3F)cn2c1)[C@@H]1CCCO1 [Compound 135]	0.255	0.106	3.79	3.13	–	–	–	–
Cc1ncc(C(=O)Nc2ccc(F)c(-c3cn4cc(C(C)C)cnc4n3)c2)o1 [Compound 413]	–	–	–	–	0.026	0.039	0.014	0.054
O=C(Nc1cnc2nc(-c3cc(NC(=O)N4CCCC4)ccc3F)cn2c1)c1ccccn1 [Compound 147]	0.074	0.019	0.065	0.067	–	–	–	–
CC(C)OC(=O)Nc1cnc2nc(-c3cc(NC(=O)N4CC[C@H](F)C4)ccc3F)cn2c1 [Compound 227]	3.74	4.37	4.91	> 50	–	–	–	–
CC(C)OC(=O)Nc1cnc2nc(-c3cc(NC(=O)N(C)c4nccn4C)ccc3Cl)cn2c1 [Compound 256]	> 25	31.6	> 20	> 50	–	–	–	–
Cc1nc(C)c(C(=O)Nc2cccc(-c3cn4cc(C5=CCOCC5)cnc4n3)c2)o1 [Compound 335]	0.178	0.114	0.407	0.521	–	–	–	–
C=C(C)c1cnc2nc(-c3cc(NC(=O)c4oc(C)nc4C)ccc3F)cn2c1 [Compound 537, N-(4-fluoro-3-(6-(prop-1-en-2-yl)imidazo[1,2-a]pyrimidin-2-yl)phenyl)-2,4-dimethyloxazole-5-carboxamide]	–	–	–	–	0.124	0.164	0.103	0.286
Cc1nc(C)c(C(=O)Nc2ccc(F)c(-c3cn4cc(F)cnc4n3)c2)o1 [Compound 199]	0.878	1.11	1.06	6.44	–	–	–	–
CCC(C)Nc1cnc2nc(-c3cc(NC(=O)c4oc(C)nc4C)ccc3F)cn2c1 (stereo not drawn) [Compound 464]	–	–	–	–	0.47	0.109	0.148	0.672
CCC(O)(C(=O)Nc1cnc2nc(-c3cc(NC(=O)N4CCCC4)ccc3F)cn2c1)C(F)(F)F (stereo not drawn) [Compound 128]	1.75	0.171	> 20	> 50	–	–	–	–
CCn1ccnc1C(=O)Nc1cnc2nc(-c3cc(NC(=O)N4CCCC4)ccc3F)cn2c1 [Compound 142]	0.063	0.121	0.179	0.506	–	–	–	–
CC(C)OC(=O)Nc1cnc2nc(-c3cc(NC(=O)c4ccc(Br)o4)ccc3F)cn2c1 [Compound 70]	0.136	0.054	0.072	0.19	–	–	–	–
Cc1nc(C)c(C(=O)Nc2ccc(F)c(-c3cn4cc(NC(=O)[C@H]5[C@@H](N)[C@@H]6C=C[C@H]5C6)cnc4n3)c2)o1 [Compound 181]	> 25	12.7	> 20	33.1	–	–	–	–
Cc1nc(C)c(C(=O)Nc2ccc(F)c(-c3cn4cc(NC(=O)OCCCCl)cnc4n3)c2)o1 [Compound 519]	–	–	–	–	0.244	0.366	3.26	1.62
Cc1nc(C)c(C(=O)Nc2ccc(F)c(-c3cn4cc(-c5c(C)noc5C)cnc4n3)c2)o1 [Compound 366]	0.849	0.338	0.443	0.339	–	–	–	–
O=C(Nc1ccc(Cl)c(-c2cn3cc(C4=CCNCC4)cnc3n2)c1)N1CCCC1 [Compound 570, N-(4-chloro-3-(6-(1,2,3,6-tetrahydropyridin-4-yl)imidazo[1,2-a]pyrimidin-2-yl)phenyl)pyrrolidine-1-carboxamide]	–	–	–	–	1.82	0.248	1.99	13.6
Cc1cc(C(=O)Nc2ccc(F)c(-c3cn4cc(NC(=O)OC(C)C)cnc4n3)c2)no1 [Compound 86]	> 25	0.924	> 20	> 50	–	–	–	–
CNCCc1ccc(-c2cnc3nc(-c4cc(NC(=O)c5oc(C)nc5C)ccc4F)cn3c2)cc1 [Compound 451]	–	–	–	–	6.47	0.968	1.95	1.93
